Source: PubChem BioAssay AID1745844 (Carcinogenic Potency Database (CPDB), 2022)
Active and inactive are the calls of the source. How the calls were made is not given here.

Test system: rodent lifetime carcinogenesis bioassay, tumor incidence TD50
Test: chronic cancer bioassays in animals – CPDB, compiled studies (AID 1745844)

SMILES: O=C1NS(=O)(=O)c2ccccc21
- TD50 (monkey, strain Rhesus [Macaca mulatta], both sexes, in feed, site: any site (literature study), lesion: malignant tumor, dosed 1221 weeks, study length 1221 weeks): 610 mg/kg/day
- TD50 (monkey, strain Rhesus [Macaca mulatta], both sexes, in feed, site: thyroid gland, lesion: lymphoma, dosed 1221 weeks, study length 1221 weeks): 43.3 mg/kg/day
- TD50 (mouse, strain CD-1 HaM/ICR, females, in feed, site: any site (literature study), lesion: several types, types named in the paper, dosed 104 weeks, study length 104 weeks): 26100 mg/kg/day (inactive)
- carcinogen call (mouse, strain CD-1 HaM/ICR, females, in feed, site: liver, lesion: one or several types, types not named, dosed 104 weeks, study length 104 weeks): negative (inactive)
- carcinogen call (mouse, strain CD-1 HaM/ICR, females, in feed, site: lung, lesion: one or several types, types not named, dosed 104 weeks, study length 104 weeks): negative (inactive)
- TD50 (mouse, strain CD-1 HaM/ICR, males, in feed, site: any site (literature study), lesion: several types, types named in the paper, dosed 104 weeks, study length 104 weeks): 881 mg/kg/day (inactive)
- carcinogen call (mouse, strain CD-1 HaM/ICR, males, in feed, site: liver, lesion: hepatoma, dosed 104 weeks, study length 104 weeks): negative (inactive)
- TD50 (mouse, strain CD-1 HaM/ICR, males, in feed, site: lung, lesion: one or several types, types not named, dosed 104 weeks, study length 104 weeks): 1360 mg/kg/day (inactive)
- carcinogen call (mouse, strain Swiss albino, females, in feed, site: liver, lesion: hepatoma, dosed 76 weeks, study length 76 weeks): negative (inactive)
- TD50 (mouse, strain Swiss albino, females, in feed, site: lung, lesion: one or several types, types not named, dosed 76 weeks, study length 76 weeks): 56300 mg/kg/day (inactive)
- carcinogen call (mouse, strain Swiss, females, in feed, site: urinary bladder, lesion: anaplastic carcinoma, dosed 91 weeks, study length 91 weeks): negative (inactive)
- carcinogen call (mouse, strain Swiss, males, in feed, site: urinary bladder, lesion: transitional-cell carcinoma, dosed 91 weeks, study length 91 weeks): negative (inactive)
- TD50 (rat, strain ACI, males, in feed, site: urinary bladder, lesion: papilloma, dosed 52 weeks, study length 52 weeks): 1110 mg/kg/day
- TD50 (rat, strain ACI, males, in feed, site: urinary bladder, lesion: transitional-cell carcinoma, dosed 52 weeks, study length 52 weeks): 3710 mg/kg/day
- carcinogen call (rat, strain Analbuminaemic (Sprague-Dawley derived), males, in feed, site: urinary bladder, lesion: carcinoma, dosed 80 weeks, study length 80 weeks): negative (inactive)
- TD50 (rat, strain Charles River CD (Sprague-Dawley), females, in feed, site: liver, lesion: biliary cystadenoma, dosed 142 weeks, study length 142 weeks): 155000 mg/kg/day
- TD50 (rat, strain Charles River CD (Sprague-Dawley), females, in feed, site: liver, lesion: cholangiocarcinoma, dosed 113 weeks, study length 113 weeks): 78200 mg/kg/day (inactive)
- TD50 (rat, strain Charles River CD (Sprague-Dawley), females, in feed, site: liver, lesion: neoplastic nodule, dosed 142 weeks, study length 142 weeks): 155000 mg/kg/day
- TD50 (rat, strain Charles River CD (Sprague-Dawley), females, in feed, site: liver, lesion: nodular hyperplasia, dosed 113 weeks, study length 113 weeks): 98400 mg/kg/day (inactive)
- carcinogen call (rat, strain Charles River CD (Sprague-Dawley), males, in feed, site: any site (literature study), lesion: several types, types named in the paper, dosed 104 weeks, study length 104 weeks): negative (inactive)
- TD50 (rat, strain Charles River CD (Sprague-Dawley), males, in feed, site: liver, lesion: biliary cystadenoma, dosed 142 weeks, study length 142 weeks): 60000 mg/kg/day
- carcinogen call (rat, strain Charles River CD (Sprague-Dawley), males, in feed, site: liver, lesion: hepatocellular carcinoma, dosed 113 weeks, study length 113 weeks): negative (inactive)
- TD50 (rat, strain Charles River CD (Sprague-Dawley), males, in feed, site: parathyroid, lesion: adenoma, dosed 142 weeks, study length 142 weeks): 23200 mg/kg/day
- TD50 (rat, strain Charles River CD (Sprague-Dawley), males, in feed, site: urinary bladder, lesion: transitional-cell carcinoma, dosed 142 weeks, study length 142 weeks): 31100 mg/kg/day
- TD50 (rat, strain Charles River CD (Sprague-Dawley), males, in feed, site: urinary bladder, lesion: transitional-cell papilloma, dosed 142 weeks, study length 142 weeks): 30800 mg/kg/day
- carcinogen call (rat, strain Fischer 344, males, in feed, site: forestomach, lesion: papilloma, dosed 72 weeks, study length 73 weeks): negative (inactive)
- carcinogen call (rat, strain Fischer 344, males, in feed, site: urinary bladder, lesion: carcinoma, dosed 72 weeks, study length 73 weeks): negative (inactive)
- carcinogen call (rat, strain Fischer 344, males, in feed, site: urinary bladder, lesion: one or several types, types not named, dosed 52 weeks, study length 52 weeks): negative (inactive)
- carcinogen call (rat, strain Fischer 344, males, in feed, site: urinary bladder, lesion: one or several types, types not named, dosed 72 weeks, study length 72 weeks): negative (inactive)
- carcinogen call (rat, strain Fischer 344, males, in feed, site: urinary bladder, lesion: one or several types, types not named, dosed 102 weeks, study length 104 weeks): negative (inactive)
- carcinogen call (rat, strain Fischer 344, males, in feed, site: urinary bladder, lesion: one or several types, types not named, dosed 104 weeks, study length 104 weeks): negative (inactive)
- TD50 (rat, strain Fischer 344, males, in feed, site: urinary bladder, lesion: papilloma, dosed 104 weeks, study length 104 weeks): 54100 mg/kg/day
- TD50 (rat, strain Fischer, males, in feed, site: testis, lesion: interstitial-cell tumor, dosed 77 weeks, study length 98 weeks): 613 mg/kg/day
- carcinogen call (rat, strain Fischer, males, in feed, site: urinary bladder, lesion: several types, types named in the paper, dosed 100 weeks, study length 104 weeks): negative (inactive)
- TD50 (rat, strain Sprague-Dawley, both sexes, in feed, site: any site (literature study), lesion: malignant tumor, dosed 130 weeks, study length 130 weeks): 4100 mg/kg/day (inactive)
- carcinogen call (rat, strain Sprague-Dawley, both sexes, in feed, site: urinary bladder, lesion: one or several types, types not named, dosed 130 weeks, study length 130 weeks): negative (inactive)
- carcinogen call (rat, strain Sprague-Dawley, males, in feed, site: urinary bladder, lesion: carcinoma, dosed 80 weeks, study length 80 weeks): negative (inactive)
- carcinogen call (rat, strain Sprague-Dawley, males, in feed, site: urinary bladder, lesion: one or several types, types not named, dosed 52 weeks, study length 52 weeks): negative (inactive)
- TD50 (rat, strain Wistar, both sexes, in feed, site: urinary bladder, lesion: one or several types, types not named, dosed 104 weeks, study length 104 weeks): 125000 mg/kg/day
- carcinogen call (rat, strain Wistar, males, in feed, site: urinary bladder, lesion: one or several types, types not named, dosed 52 weeks, study length 52 weeks): negative (inactive)

SMILES: O=[N+]([O-])c1cccc2ccccc12
- carcinogen call (mouse, strain B6C3F1, females, in feed, site: any site (literature study), lesion: several types, types named in the paper, dosed 78 weeks, study length 96 weeks): negative (inactive)
- TD50 (mouse, strain B6C3F1, females, in feed, site: lung, lesion: alveolar/bronchiolar adenoma + alveolar/bronchiolar carcinoma, dosed 78 weeks, study length 96 weeks): 682 mg/kg/day
- carcinogen call (mouse, strain B6C3F1, males, in feed, site: any site (literature study), lesion: several types, types named in the paper, dosed 78 weeks, study length 96 weeks): negative (inactive)
- carcinogen call (rat, strain Fischer 344, females, in feed, site: any site (literature study), lesion: several types, types named in the paper, dosed 78 weeks, study length 107 weeks): negative (inactive)
- carcinogen call (rat, strain Fischer 344, males, in feed, site: any site (literature study), lesion: several types, types named in the paper, dosed 78 weeks, study length 107 weeks): negative (inactive)
- TD50 (rat, strain Fischer 344, males, in feed, site: liver, lesion: hepatocellular adenoma + hepatocellular carcinoma + neoplastic nodule, dosed 78 weeks, study length 107 weeks): 509 mg/kg/day

SMILES: CCOC(=O)N(CC)N=O
- TD50 (rat, strain Donryu, females, in drinking water, site: any site (literature study), lesion: several types, types named in the paper, dosed 51 weeks, study length 60 weeks): 0.0784 mg/kg/day
- TD50 (rat, strain Donryu, females, in drinking water, site: duodenum, lesion: adenocarcinoma, dosed 51 weeks, study length 60 weeks): 0.555 mg/kg/day
- TD50 (rat, strain Donryu, females, in drinking water, site: esophagus, lesion: papilloma, dosed 51 weeks, study length 60 weeks): 0.473 mg/kg/day
- TD50 (rat, strain Donryu, females, in drinking water, site: esophagus, lesion: squamous-cell carcinoma, dosed 51 weeks, study length 60 weeks): 0.54 mg/kg/day
- TD50 (rat, strain Donryu, females, in drinking water, site: forestomach, lesion: papilloma, dosed 51 weeks, study length 60 weeks): 0.508 mg/kg/day
- TD50 (rat, strain Donryu, females, in drinking water, site: forestomach, lesion: squamous-cell carcinoma, dosed 51 weeks, study length 60 weeks): 0.248 mg/kg/day
- TD50 (rat, strain Donryu, females, in drinking water, site: several sites, sites named in the paper, lesion: papilloma, dosed 51 weeks, study length 60 weeks): 0.339 mg/kg/day
- TD50 (rat, strain Donryu, females, in drinking water, site: several sites, sites named in the paper, lesion: squamous-cell carcinoma, dosed 51 weeks, study length 60 weeks): 0.164 mg/kg/day
- TD50 (rat, strain F344/DuCrj, females, in drinking water, site: any site (literature study), lesion: one or several types, types not named, dosed 97 weeks, study length 112 weeks): 0.135 mg/kg/day
- TD50 (rat, strain F344/DuCrj, females, in drinking water, site: esophagus, lesion: papilloma, dosed 97 weeks, study length 112 weeks): 0.514 mg/kg/day
- TD50 (rat, strain F344/DuCrj, females, in drinking water, site: esophagus, lesion: squamous-cell carcinoma, dosed 97 weeks, study length 112 weeks): 0.139 mg/kg/day
- TD50 (rat, strain F344/DuCrj, females, in drinking water, site: forestomach, lesion: papilloma, dosed 97 weeks, study length 112 weeks): 0.0796 mg/kg/day
- TD50 (rat, strain F344/DuCrj, females, in drinking water, site: forestomach, lesion: squamous-cell carcinoma, dosed 97 weeks, study length 112 weeks): 0.213 mg/kg/day
- TD50 (rat, strain F344/DuCrj, females, in drinking water, site: oral cavity, lesion: papilloma, dosed 97 weeks, study length 112 weeks): 3.02 mg/kg/day
- TD50 (rat, strain F344/DuCrj, females, in drinking water, site: oral cavity, lesion: squamous-cell carcinoma, dosed 97 weeks, study length 112 weeks): 0.784 mg/kg/day
- TD50 (rat, strain F344/DuCrj, females, in drinking water, site: upper gastrointestinal tract, lesion: several types, types named in the paper, dosed 97 weeks, study length 112 weeks): 0.0553 mg/kg/day

SMILES: OCCOCCO
- carcinogen call (rat, strain F344/DuCrj, females, in drinking water, site: any site (literature study), lesion: several types, types named in the paper, dosed 108 weeks, study length 108 weeks): negative (inactive)
- carcinogen call (rat, strain F344/DuCrj, females, in drinking water, site: liver, lesion: neoplastic nodule, dosed 108 weeks, study length 108 weeks): negative (inactive)
- carcinogen call (rat, strain F344/DuCrj, males, in drinking water, site: any site (literature study), lesion: several types, types named in the paper, dosed 108 weeks, study length 108 weeks): negative (inactive)
- TD50 (rat, strain F344/DuCrj, males, in drinking water, site: liver, lesion: neoplastic nodule, dosed 108 weeks, study length 108 weeks): 34200 mg/kg/day (inactive)
- TD50 (rat, strain Osborne-Mendel, males, in feed, site: urinary bladder, lesion: several types, types named in the paper, dosed 104 weeks, study length 104 weeks): 1660 mg/kg/day

SMILES: C#C[C@]1(O)CC[C@H]2[C@@H]3CCC4=C(CCC(=O)C4)[C@H]3CC[C@@]21C
- TD50 (mouse, strain (C3H x RIII)F1 (MTV+), females, in feed, site: mammary tissue, wider than the gland, lesion: one or several types, types not named, dosed 104 weeks, study length 104 weeks): 2.13 mg/kg/day
- TD50 (mouse, strain CFLP, females, in feed, site: liver, lesion: hepatocellular tumor, dosed 78 weeks, study length 78 weeks): 49.1 mg/kg/day (inactive)
- carcinogen call (mouse, strain CFLP, males, in feed, site: liver, lesion: hepatocellular tumor, dosed 78 weeks, study length 78 weeks): negative (inactive)
- carcinogen call (mouse, strain Swiss Webster, females, by gavage, site: liver, lesion: hepatocellular tumor, dosed 65 weeks, study length 80 weeks): negative (inactive)

SMILES: CCC(C)[C@H]1O[C@]2(CC[C@@H]1C)CC1C[C@@H](C/C=C(\C)[C@@H](O[C@H]3C[C@H](OC)[C@@H](OC4C[C@H](OC)[C@@H](O)[C@H](C)O4)[C@H](C)O3)[C@@H](C)/C=C/C=C3\CO[C@@H]4[C@H](O)C(C)=C[C@@H](C(=O)O1)[C@]34O)O2 (some centres not stated) (tested in a mixture with another compound)
- carcinogen call (rat, strain Wistar, males, in feed, site: forestomach, lesion: one or several types, types not named, dosed 52 weeks, study length 52 weeks): negative (inactive)
